This note sets out measurements from patent publication US8608961B2, “Method for affinity chromatography of antithrombin III” (Aventis Pharma S.A., priority 2005, dated 2013).

The experiment has as its system factor Xa. Briefly: anti-Xa activity of fractions separated by ATIII affinity chromatography. Type of experiment: biochemical. The note with it: fractions of LMWH (hexasaccharides) separated on ATIII affinity column 1 (protection: enoxaparin) or column 2 (protection: heparin); hexasaccharide for comparison. The text has this:
The composition of the elution fractions may then be analyzed according to methods well known to those skilled in the art. Thus, if the fractions analyzed comprise oligosaccharides, those skilled in the art may use the analytical methods described in the prior art: for example and in a nonlimiting manner, capillary electrophoresis, MALDI-TOF mass spectrophotometry, high performance liquid chromatography. Those skilled in the art may also use a biological assay, such as the factor Xa inhibition assay.
In order to corroborate the structural analysis, the anti-Xa activities of the fractions having affinity and not having affinity, separated in column 1 (protection: enoxaparin), were determined.

For the substance “ΔUA-(1→4)α-GlcNAc(6S)-(1→4)β-GlcA-(1→4)α-GlcNS(NS,3,6S)-(1→4)β-IdA2S-(1→4)α-GlcNS(NS,6S)”, the anti-Xa activity is recorded as 650-700 IU/mg.
